For 19 molecules, T/C results are on record in PubChem BioAssay AID270 (DTP/NCI, 2004).

Molecules are shown by their SMILES. “And” between values parts separate entries of the source, which are not always exact repeats. Equal entries are not always repeated. Records with an inconclusive call do not appear.

The test system of the assay is BDF1 mice, s.c. Lewis lung carcinoma, T/C %. As to the kind of experiment: NCI In Vivo Anticancer Drug Screen. Data for tumor model Lewis Lung Carcinoma (subcutaneous) in B6D2F1 (BDF1) mice. The procedure, abridged:
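First, mice carry a transplantable tumor. Next, groups receive either compound or vehicle. Finally, survival or tumor dimensions in the dosed animals are divided by the corresponding control figure.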

[1] abbreviates: endpoint: mean tumor weight, dose: 50.0 mg/kg/injection, schedule: Q01DX011 (ip), vehicle: saline, higher = larger tumour.
Where [2] appears, read: endpoint: mean tumor weight, dose: 200.0 mg/kg/injection, schedule: Q01DX011 (ip), vehicle: saline, higher = larger tumour.
The mark [3] stands for this setting: endpoint: mean tumor weight, dose: 400.0 mg/kg/injection, schedule: Q01DX011 (ip), vehicle: saline, higher = larger tumour.
Setting [4] is: endpoint: median survival time, dose: 25.0 mg/kg/injection, schedule: Q01DX009 (ip), vehicle: saline with Tween-80, higher = longer survival.
Setting [5] is: endpoint: median survival time, dose: 50.0 mg/kg/injection, schedule: Q01DX009 (ip), vehicle: saline with Tween-80, higher = longer survival.

For `C=C(CC(=O)O)C(=O)O` (tested in a mixture with another compound), the T/C by setting is: (endpoint: median survival time, dose: 3.12 mg/kg/injection, schedule: Q01DX009 (ip), vehicle: other, higher = longer survival) 94 % of control; (endpoint: median survival time, dose: 6.25 mg/kg/injection, schedule: Q01DX009 (ip), vehicle: other, higher = longer survival) 101 % of control; (endpoint: median survival time, dose: 12.5 mg/kg/injection, schedule: Q01DX009 (ip), vehicle: other, higher = longer survival) 103 % of control; (endpoint: median survival time, dose: 25.0 mg/kg/injection, schedule: Q01DX009 (ip), vehicle: other, higher = longer survival) 88 % of control.
As to `Cc1cc2oc(=O)c3c(c2c(O)c1CN1CCCC1)CCCC3`, the T/C (endpoint: median survival time, dose: 29.0 mg/kg/injection, schedule: Q01DX009 (ip), vehicle: Klucel (hydroxypropylcellulose) (HPC), higher = longer survival) was 94 % of control; the T/C (endpoint: median survival time, dose: 58.0 mg/kg/injection, schedule: Q01DX009 (ip), vehicle: Klucel (hydroxypropylcellulose) (HPC), higher = longer survival) was 106 % of control; the T/C (endpoint: median survival time, dose: 116.0 mg/kg/injection, schedule: Q01DX009 (ip), vehicle: Klucel (hydroxypropylcellulose) (HPC), higher = longer survival) was 106 % of control; the T/C (endpoint: median survival time, dose: 232.0 mg/kg/injection, schedule: Q01DX009 (ip), vehicle: Klucel (hydroxypropylcellulose) (HPC), higher = longer survival) was 94 % of control.
As to `NC(=O)c1csc(C2OC(CO)C(O)C2O)n1` (stereo unspecified), the T/C reads like this: (endpoint: median survival time, dose: 18.75 mg/kg/injection, schedule: Q01DX009 (ip), vehicle: water, higher = longer survival) 190 % of control and 235 % of control; (endpoint: median survival time, dose: 37.5 mg/kg/injection, schedule: Q01DX009 (ip), vehicle: water, higher = longer survival) 190 % of control and 235 % of control; (endpoint: median survival time, dose: 75.0 mg/kg/injection, schedule: Q01DX009 (ip), vehicle: water, higher = longer survival) 190 % of control and 235 % of control; (endpoint: median survival time, dose: 150.0 mg/kg/injection, schedule: Q01DX009 (ip), vehicle: water, higher = longer survival) 190 % of control and 235 % of control; (endpoint: median survival time, dose: 300.0 mg/kg/injection, schedule: Q01DX009 (ip), vehicle: water, higher = longer survival) 190 % of control and 235 % of control; (endpoint: median survival time, dose: 600.0 mg/kg/injection, schedule: Q01DX009 (ip), vehicle: water, higher = longer survival) 190 % of control and 235 % of control.
Regarding `CC(=O)OC(C)(C)/C=C/C(=O)[C@](C)(O)[C@H]1[C@H](O)C[C@@]2(C)[C@@H]3CC=C4[C@@H](CC[C@H](O)C4(C)C)[C@]3(CO)C(=O)C[C@]12C`, the T/C (endpoint: mean tumor weight, dose: 0.57 mg/kg/injection, schedule: Q01DX011 (ip), vehicle: saline, higher = larger tumour) is 67 % of control.
In the case of `N#Cc1ccc(NC(=O)N(CCCl)N=O)cc1`, the T/C is 83 % of control (endpoint: median tumor weight (est.), dose: 13.0 mg/kg/injection, schedule: Q01DX001 (ip), vehicle: Klucel (hydroxypropylcellulose) (HPC), higher = larger tumour); 118 % of control (endpoint: median tumor weight (est.), dose: 19.0 mg/kg/injection, schedule: Q01DX001 (ip), vehicle: Klucel (hydroxypropylcellulose) (HPC), higher = larger tumour); 109 % of control (endpoint: median tumor weight (est.), dose: 29.0 mg/kg/injection, schedule: Q01DX001 (ip), vehicle: Klucel (hydroxypropylcellulose) (HPC), higher = larger tumour); 73 % of control (endpoint: median tumor weight (est.), dose: 44.0 mg/kg/injection, schedule: Q01DX001 (ip), vehicle: Klucel (hydroxypropylcellulose) (HPC), higher = larger tumour); 39 % of control (endpoint: median tumor weight (est.), dose: 67.0 mg/kg/injection, schedule: Q01DX001 (ip), vehicle: Klucel (hydroxypropylcellulose) (HPC), higher = larger tumour).
For `Cn1cnc2c1c(=O)[nH]c(=O)n2C`, the T/C was 74 % of control under setting [1]; 72 % of control (endpoint: mean tumor weight, dose: 100.0 mg/kg/injection, schedule: Q01DX011 (ip), vehicle: saline, higher = larger tumour); 85 % of control under setting [2]; 84 % of control under setting [3].
Regarding `O=C(NP(=O)(N1CC1)N1CC1)c1cc(I)ccc1I`, the T/C by setting is: (endpoint: median survival time, dose: 1.0 mg/kg/injection, schedule: Q02DX009 (ip), vehicle: saline with Tween-80, higher = longer survival) 110 % of control; (endpoint: median survival time, dose: 2.0 mg/kg/injection, schedule: Q02DX009 (ip), vehicle: saline with Tween-80, higher = longer survival) 112 % of control; (endpoint: median survival time, dose: 4.0 mg/kg/injection, schedule: Q02DX009 (ip), vehicle: saline with Tween-80, higher = longer survival) 117 % of control; (endpoint: median survival time, dose: 8.0 mg/kg/injection, schedule: Q02DX009 (ip), vehicle: saline with Tween-80, higher = longer survival) 117 % of control; (endpoint: median survival time, dose: 16.0 mg/kg/injection, schedule: Q02DX009 (ip), vehicle: saline with Tween-80, higher = longer survival) 106 % of control; (endpoint: median survival time, dose: 32.0 mg/kg/injection, schedule: Q02DX009 (ip), vehicle: saline with Tween-80, higher = longer survival) 102 % of control. The T/C (endpoint: median survival time, dose: 64.0 mg/kg/injection, schedule: Q02DX009 (ip), vehicle: saline with Tween-80, higher = longer survival) was 98 % of control.
With `OC(COc1cccc2ccccc12)CN(CCCl)CCCl` (stereo unspecified), the T/C (endpoint: median survival time, dose: 1.25 mg/kg/injection, schedule: Q01DX009 (ip), vehicle: Klucel (hydroxypropylcellulose) (HPC), higher = longer survival) was 94 % of control and 104 % of control; the T/C (endpoint: median survival time, dose: 2.5 mg/kg/injection, schedule: Q01DX009 (ip), vehicle: Klucel (hydroxypropylcellulose) (HPC), higher = longer survival) was 100 % of control and 101 % of control; the T/C (endpoint: median survival time, dose: 5.0 mg/kg/injection, schedule: Q01DX009 (ip), vehicle: Klucel (hydroxypropylcellulose) (HPC), higher = longer survival) was 103 % of control.
Consider `O=C1CC(c2ccc(O)cc2)CC(=O)C1C(C1CC=CCC1)N(CCCl)CCCl` (stereo unspecified), for which the T/C by setting is: (endpoint: median survival time, dose: 25.0 mg/kg/injection, schedule: Q01DX009 (ip), vehicle: Klucel (hydroxypropylcellulose) (HPC), higher = longer survival) 122 % of control; (endpoint: median survival time, dose: 50.0 mg/kg/injection, schedule: Q01DX009 (ip), vehicle: Klucel (hydroxypropylcellulose) (HPC), higher = longer survival) 123 % of control; (endpoint: median survival time, dose: 100.0 mg/kg/injection, schedule: Q01DX009 (ip), vehicle: Klucel (hydroxypropylcellulose) (HPC), higher = longer survival) 115 % of control; (endpoint: median survival time, dose: 200.0 mg/kg/injection, schedule: Q01DX009 (ip), vehicle: Klucel (hydroxypropylcellulose) (HPC), higher = longer survival) 111 % of control; (endpoint: median survival time, dose: 400.0 mg/kg/injection, schedule: Q01DX009 (ip), vehicle: Klucel (hydroxypropylcellulose) (HPC), higher = longer survival) 98 % of control.
For `[O-][n+]1c(CCl)nc2cccc3c2c1-c1ccccc1-3`, the T/C was 106 % of control and 111 % of control under setting [4]; 112 % of control and 118 % of control under setting [5]; 94 % of control (endpoint: median survival time, dose: 100.0 mg/kg/injection, schedule: Q01DX009 (ip), vehicle: saline with Tween-80, higher = longer survival).
For the molecule `CC(C)CCSc1nc(N)nc2nc[nH]c12`, the T/C (endpoint: mean tumor weight, dose: 300.0 mg/kg/injection, schedule: Q01DX011 (ip), vehicle: other, higher = larger tumour) is 59 % of control.
Consider `Nc1ccc(O)cc1`, for which the T/C runs as follows: (endpoint: mean tumor weight, dose: 37.5 mg/kg/injection, schedule: Q01DX011 (ip), vehicle: saline, higher = larger tumour) 96 % of control; (endpoint: mean tumor weight, dose: 300.0 mg/kg/injection, schedule: Q01DX011 (ip), vehicle: saline, higher = larger tumour) 26 % of control.
Turning to `COc1ccc(-c2cc(=O)c3c(O)cc(OC)cc3o2)cc1`, the T/C runs as follows: (endpoint: mean tumor weight, dose: 220.0 mg/kg/injection, schedule: Q01DX011 (ip), vehicle: saline, higher = larger tumour) 84 % of control; (endpoint: mean tumor weight, dose: 330.0 mg/kg/injection, schedule: Q01DX011 (ip), vehicle: saline, higher = larger tumour) 71 % of control and 89 % of control; (endpoint: mean tumor weight, dose: 500.0 mg/kg/injection, schedule: Q01DX011 (ip), vehicle: saline, higher = larger tumour) 48 % of control and 60 % of control.
Consider `O=NN(CCCl)C(=O)NC1CS(=O)(=O)CS(=O)(=O)C1`, for which the T/C by setting is: (endpoint: median survival time, dose: 5.3 mg/kg/injection, schedule: Q04DX004 (ip), vehicle: saline with Tween-80, higher = longer survival) 82 % of control; (endpoint: median survival time, dose: 8.0 mg/kg/injection, schedule: Q04DX004 (ip), vehicle: saline with Tween-80, higher = longer survival) 151 % of control; (endpoint: median survival time, dose: 12.0 mg/kg/injection, schedule: Q04DX004 (ip), vehicle: saline with Tween-80, higher = longer survival) 99 % of control; (endpoint: median survival time, dose: 18.0 mg/kg/injection, schedule: Q04DX004 (ip), vehicle: saline with Tween-80, higher = longer survival) 118 % of control.
Consider `CNS(=O)(=O)c1ncnc2nc[nH]c12`, for which the T/C was 61 % of control (endpoint: mean tumor weight, dose: 22.0 mg/kg/injection, schedule: Q01DX011 (ip), vehicle: carboxymethylcellulose (CMC), higher = larger tumour); 62 % of control (endpoint: mean tumor weight, dose: 35.0 mg/kg/injection, schedule: Q01DX011 (ip), vehicle: carboxymethylcellulose (CMC), higher = larger tumour); 56 % of control (endpoint: mean tumor weight, dose: 50.0 mg/kg/injection, schedule: Q01DX011 (ip), vehicle: carboxymethylcellulose (CMC), higher = larger tumour).
For `C=C(C)C(=O)O[C@H]1[C@H]2[C@H](OC(=O)[C@H]2C)[C@H](O)[C@@H](C)[C@@H]2C=CC(=O)[C@]21C`, the T/C was 113 % of control (endpoint: median survival time, dose: 15.0 mg/kg/injection, schedule: Q01DX009 (ip), vehicle: saline, higher = longer survival) and 104 % of control (endpoint: median survival time, dose: 30.0 mg/kg/injection, schedule: Q01DX009 (ip), vehicle: saline, higher = longer survival).
For the molecule `N#Cc1ncc(C(Cl)Cl)nc1Cl`, the T/C under setting [4] was 113 % of control and the T/C under setting [5] is 98 % of control.
Turning to `CS(=O)(=O)OCC(O)C(O)C(O)C(O)COS(C)(=O)=O` (stereo unspecified), the T/C is 86 % of control and 97 % of control under setting [1]; 54 % of control and 60 % of control under setting [2]; 58 % of control under setting [3].
For the molecule `Nc1nc(=S)c2ncn(C3CC(O)C(CO)O3)c2[nH]1` (stereo unspecified), the T/C reads like this: (endpoint: median survival time, dose: 4.0 mg/kg/injection, schedule: Q01DX009 (ip), vehicle: saline, higher = longer survival) 122 % of control; (endpoint: median survival time, dose: 8.0 mg/kg/injection, schedule: Q01DX009 (ip), vehicle: saline, higher = longer survival) 118 % of control; (endpoint: median survival time, dose: 16.0 mg/kg/injection, schedule: Q01DX009 (ip), vehicle: saline, higher = longer survival) 108 % of control; (endpoint: median survival time, dose: 64.0 mg/kg/injection, schedule: Q01DX009 (ip), vehicle: saline, higher = longer survival) 113 % of control.
